System: rumen fluid
Assay: In vitro rumen technique: propionic acid production in rumen fluid
Format: cell-based
Details: 10 micrograms per milliliter; rumen fluid from fistulated cow, 39° C., about 16 hours
Procedure: The value of animal feeds has generally been determined directly by feeding the animal. British Patent Specification No. 1,197,826 details an in vitro rumen technique whereby the changes occurring in feeds brought about by microorganisms are measured more readily and with great accuracy in the evaluation of animal feeds. This technique involves the use of an apparatus in which the digestive processes of the animals are conducted and studied in vitro. The animal feeds, rumen inoculum and various growth promotants are introduced into and withdrawn from a laboratory unit under carefully controlled conditions and the changes taken place are studied critically and progressively during the consumption of the feed by the microorganisms. […] The change in propionic acid content is expressed as percent of the propionic acid content found in the control rumen fluid. Long term in vivo feeding studies are used to show a reliable correlation between propionic acid increase in the rumen fluid and improved animal performance. […]
After incubation, 5 ml. of the sample is mixed with 1 ml. of 25% metaphosphoric acid. […] Samples are then analyzed by gas-liquid chromatography by the method of D. W. Kellog, J. Dairy Science, 52, 1690, 1969. Peak heights for acetic, propionic and butyric acids are determined for samples from untreated and treated incubation flasks.

`CC[C@@H](C(=O)[C@@H](C)[C@@H](O)[C@H](C)[C@@H]1O[C@@H]([C@@H](CC)C(=O)O)CC[C@@H]1C)[C@H]1O[C@]2(C=C[C@@H](O)[C@]3(CC[C@@](C)([C@H]4CC[C@](O)(CC)[C@H](C)O4)O3)O2)[C@H](C)C[C@@H]1C` [salinomycin] was tested, and the “increase in the production of propionic acid over control” value was roughly 46%.

From US4992369A, “Fermentation process for glycopeptide antibiotic” (Pfizer Inc., priority 1986, dated 1991)
